In patent US8188097B2, “Pyrazolo[1,5-A]pyrimidine compounds” (Mitsubishi Tanabe Pharma Corporation, priority 2005, dated 2012):

What follows are compounds tested against T1, Human CB1 receptor (Homo sapiens, UniProt P21554) (assay: Human CB1 receptor binding assay ([3H]-CP55940 displacement, hCB1/CHO membrane fraction)). Conditions: human CB1 receptor membrane preparation, 30° C. for 90 minutes.
T1 construct: host or cells: CHO cells (hCB1/CHO#C3), membrane fraction prepared in house
Experimental: Human Cb1 Receptor Binding Assay
(1) Preparation of Human Cb1 Receptor (Membrane Fraction):
Human CB1-expressing cell line: hCB1/CHO#C3 (Euroscreen)
Buffer A: 50 mM tris-HCl (pH 7.5) containing ethylenediaminetetraacetic acid (2.5 mM), MgCl2 (5 mM) and sucrose (200 mM)
The receptor-expressing cells cultivated in the above medium were washed with phosphate buffer (×2) and thereto was added Buffer A (2 mL) under ice-cooling or 4° C. (the following procedures were also carried out at the same temperature). The cells were collected by using a cell-scraper, treated by a microtip-type ultrasonicator for 20 seconds (pulse-on: 2 sec, pulse-off: 1 sec) and centrifuged (500×g, 15 min). The supernatant was separated and centrifuged (43000×g, 60 min). The resultant pellet was suspended in Buffer A and homogenized with a potter-type homogenizer. To the homogenate was added an equal volume of 80% glycerol and stored at −80° C.
(2) Procedure of Cb1 Receptor Binding Assay:
Buffer B: 50 mM tris-HCl (pH 7.5) containing ethylenediaminetetraacetic acid (2.5 mM), MgCl2 (5 mM) and bovine serum albumine (2 mg/mL, fatty acid-free, SIGMA-A7030)
Buffer C: 50 mM tris-HCl (pH 7.5) containing ethylenediaminetetraacetic acid (2.5 mM), MgCl2 (5 mM) and bovine serum albumine (2 mg/mL, SIGMA-A7906)
Coating solution: 0.3% ethyleneimine polymer
Radioligand: [^3H]-CP55940 (30 nM/7992 dpm/mL) prepared by diluting 8.3 μM solution of the radioligand with Buffer B
Each well of the assay plate (96-well, Costar Code#3371) was filled with Buffer B (140 μL), a solution of each test compound in dimethylsulfoxide (20 μL, final concentration: […]), radioligand (20 μL) and membrane preparation (20 μL, 0.5 μg/20 μL) and the mixture was incubated at 30° C. for 90 minutes to proceed the binding reaction. The reaction mixture was harvested to each well of a plate presoaked with the above coating solution (Packard Unifilter GF/B, #6005177). The plate was washed with Buffer C (200 μL×10) and dried at 50° C. for 1 hour and Microscinti 40 (40 μL) was added to each well. The bound radiolabel was quantitated by scintillation counting (Top Count NXT, Packard). IC50 value of each test compound against the radioligand-binding to CB1 receptors was calculated on the basis of the quantitated radiolabel activity by using Graphpad Prism 3.02.

T1 sequence (P21554 whole entry): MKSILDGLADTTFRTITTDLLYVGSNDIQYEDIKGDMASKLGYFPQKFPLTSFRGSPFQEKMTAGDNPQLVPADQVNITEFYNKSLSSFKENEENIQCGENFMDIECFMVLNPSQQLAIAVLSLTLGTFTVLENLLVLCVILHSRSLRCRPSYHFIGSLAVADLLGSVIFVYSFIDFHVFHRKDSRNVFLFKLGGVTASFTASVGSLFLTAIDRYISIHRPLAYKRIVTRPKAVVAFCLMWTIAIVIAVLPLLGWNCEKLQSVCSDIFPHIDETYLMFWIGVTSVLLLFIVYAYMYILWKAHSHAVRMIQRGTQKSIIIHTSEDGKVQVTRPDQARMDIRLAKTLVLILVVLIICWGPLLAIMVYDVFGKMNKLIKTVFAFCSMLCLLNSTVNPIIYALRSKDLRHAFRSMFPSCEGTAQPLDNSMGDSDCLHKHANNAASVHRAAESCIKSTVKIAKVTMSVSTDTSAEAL

SMILES	IC50 (nM)
Cc1nn2c(-c3ccc(Cl)cc3F)c(-c3ccccc3C#N)cnc2c1C(=O)NN1CCCC1 [Example 427]	+ +
O=C(NC1CSC1)c1cnn2c(-c3ccc(Cl)cc3)c(-c3ccccc3Cl)cnc12 [Example 324]	+ +
CN(NC(=O)c1c(C(F)(F)F)nn2c(-c3ccc(Cl)cc3)c(-c3ccccc3Cl)cnc12)c1ccccn1 [Example 309]	+ + +
N#Cc1ccccc1-c1cnc2c(C(=O)NN3CCCCCC3)cnn2c1-c1ccc(Cl)cc1 [Example 252]	+ +
Cc1nn2c(-c3ccc(Cl)cc3)c(-c3ccccc3Cl)cnc2c1C(=O)N[C@H]1CCS(=O)(=O)C1 [Example 185]	+ +
CC(=O)Nc1nn2c(-c3ccc(Cl)cc3)c(-c3ccccc3Cl)cnc2c1C(=O)NC1CCS(=O)(=O)C1 (stereo not shown) [Example 224]	+ +
CC(C)CNC(=O)c1cnn2c(-c3ccc(C(F)(F)F)cc3)c(-c3ccccc3Cl)cnc12 [Example 287]	+ +
Cc1nn2c(-c3ccc(Cl)cc3)c(-c3ccccc3Cl)cnc2c1C(=O)CN1CCS(=O)(=O)CC1 [Example 462]	+ +

Second part, the compound after the results:

IC50 (nM)	SMILES
+ + +	CN(NC(=O)c1cnn2c(-c3ccc(Cl)cc3)c(-c3ccccc3C#N)cnc12)c1cccc(Cl)c1 [Example 253]
+ + +	CN(NC(=O)c1c(N(C)S(C)(=O)=O)nn2c(-c3ccc(Cl)cc3)c(-c3ccccc3Cl)cnc12)c1ccccn1 [Example 452]
+ +	Cc1nn2c(-c3ccc(C(F)(F)F)cc3)c(-c3ccccc3Cl)cnc2c1S(=O)(=O)N1CCCC1 [Example 238, 6-(2-chlorophenyl)-7-(4-trifluoromethylphenyl)-2-methyl-3-(1-pyrrolidinyl)sulfonylpyrazolo[1,5-a]pyrimidine]
+ +	O=C(NC1CCCCC1)c1cnn2c(-c3ccc(Cl)cc3)c(-c3ccccc3Cl)cnc12 [Example 10]
+ +	Cc1nn2c(-c3ccc(Cl)s3)c(-c3ccccc3Cl)cnc2c1C(=O)NN(C)c1ccccn1 [Example 410]
